Experimental data: ChEMBL document CHEMBL1156259, “Synthesis and biological evaluation of amidine, guanidine, and thiourea derivatives of 2-amino(6-trifluoromethoxy)benzothiazole as neuroprotective agents potentially useful in brain diseases” (J Med Chem, 2010)
Activity calls are given as the source filed them. No cut-off for these calls is given here.

Tests used:
[1] = test system: Cortex; test: Neuroprotective activity in Sprague-Dawley rat brain cortex slices assessed as interval of drug concentration causing reduction of oxygen/glucose deprivation-induced glutamate release; type: functional
[2] = test system: Cortex; test: Neuroprotective activity in Sprague-Dawley rat brain cortex slices assessed as drug concentration causing maximum reduction of oxygen/glucose deprivation-induced glutamate release; type: functional; settings: read-out: MEC
[3] = test system: Cortex; test: Neuroprotective activity in Sprague-Dawley rat brain cortex slices assessed as reduction of oxygen/glucose deprivation-induced glutamate release at minimal effective concentration; type: functional; design: scale not given: the % may be the effect or the level left
[4] = test system: Cortex; test: Neuroprotective activity in Sprague-Dawley rat brain cortex slices assessed as interval of drug concentration causing reduction of oxygen/glucose deprivation-induced LDH release; type: functional
[5] = test system: Cortex; test: Neuroprotective activity in Sprague-Dawley rat brain cortex slices assessed as drug concentration causing maximum reduction of oxygen/glucose deprivation-induced LDH release; type: functional; settings: read-out: MEC
[6] = test system: Cortex; test: Neuroprotective activity in Sprague-Dawley rat brain cortex slices assessed as reduction of oxygen/glucose deprivation-induced LDH release at minimal effective concentration; type: functional; design: scale not given: the % may be the effect or the level left
[7] = Antioxidant activity assessed as ABTS+ radical scavenging activity by spectrophotometry relative to 1 mM Trolox; type: functional
[8] = species: Rattus norvegicus; settings: Wistar, Piriform cortex, at 50 µM
Description: Inhibition of voltage-dependent Na(+) channel in Wistar rat brain piriform cortex layer 2 assessed as inhibition of transient Na+ current amplitude at 50 uM under holding potential of -80 mV by whole cell patch clamp assay

[9] = cells; type: tissue-based; settings: Rattus norvegicus, Wistar, Piriform cortex
Description: Inhibition of voltage-dependent Ca(+) channel in Wistar rat brain piriform cortex acutely dissociated neurons assessed as inhibition of high voltage activated Ba+ current amplitude at under holding potential of -60 mV by whole cell patch clamp assay

[10] = species: Rattus norvegicus; settings: Wistar, Piriform cortex, at 60 µM
Description: Inhibition of voltage-dependent Ca(+) channel in Wistar rat brain piriform cortex acutely dissociated neurons assessed as effect on half activation potential of high voltage activated Ba+ current at 60 uM by whole cell patch clamp assay

[11] = species: Rattus norvegicus; settings: Wistar, Piriform cortex, at 60 µM; remark: listed apart in the source
Description: Inhibition of voltage-dependent Ca(+) channel in Wistar rat brain piriform cortex acutely dissociated neurons assessed as effect on high voltage activated Ba+ current activation speed at 60 uM by whole cell patch clamp assay

[12] = species: Rattus norvegicus; settings: Wistar, Piriform cortex, at 60 µM; remark: listed apart in the source
Description: Inhibition of voltage-dependent Ca(+) channel in Wistar rat brain piriform cortex acutely dissociated neurons assessed as effect on high voltage activated Ba+ current deactivation at 60 uM by whole cell patch clamp assay

[13] = molecular target: Nitric oxide synthase 1 (Rattus norvegicus) (UniProt P29476); test: Inhibition of nNOS in Sprague-Dawley rat brain assessed as nitric oxide-mediated conversion of oxyhemoglobin to methemoglobin
Sequence of Nitric oxide synthase 1 (Rattus norvegicus) (P29476 whole entry): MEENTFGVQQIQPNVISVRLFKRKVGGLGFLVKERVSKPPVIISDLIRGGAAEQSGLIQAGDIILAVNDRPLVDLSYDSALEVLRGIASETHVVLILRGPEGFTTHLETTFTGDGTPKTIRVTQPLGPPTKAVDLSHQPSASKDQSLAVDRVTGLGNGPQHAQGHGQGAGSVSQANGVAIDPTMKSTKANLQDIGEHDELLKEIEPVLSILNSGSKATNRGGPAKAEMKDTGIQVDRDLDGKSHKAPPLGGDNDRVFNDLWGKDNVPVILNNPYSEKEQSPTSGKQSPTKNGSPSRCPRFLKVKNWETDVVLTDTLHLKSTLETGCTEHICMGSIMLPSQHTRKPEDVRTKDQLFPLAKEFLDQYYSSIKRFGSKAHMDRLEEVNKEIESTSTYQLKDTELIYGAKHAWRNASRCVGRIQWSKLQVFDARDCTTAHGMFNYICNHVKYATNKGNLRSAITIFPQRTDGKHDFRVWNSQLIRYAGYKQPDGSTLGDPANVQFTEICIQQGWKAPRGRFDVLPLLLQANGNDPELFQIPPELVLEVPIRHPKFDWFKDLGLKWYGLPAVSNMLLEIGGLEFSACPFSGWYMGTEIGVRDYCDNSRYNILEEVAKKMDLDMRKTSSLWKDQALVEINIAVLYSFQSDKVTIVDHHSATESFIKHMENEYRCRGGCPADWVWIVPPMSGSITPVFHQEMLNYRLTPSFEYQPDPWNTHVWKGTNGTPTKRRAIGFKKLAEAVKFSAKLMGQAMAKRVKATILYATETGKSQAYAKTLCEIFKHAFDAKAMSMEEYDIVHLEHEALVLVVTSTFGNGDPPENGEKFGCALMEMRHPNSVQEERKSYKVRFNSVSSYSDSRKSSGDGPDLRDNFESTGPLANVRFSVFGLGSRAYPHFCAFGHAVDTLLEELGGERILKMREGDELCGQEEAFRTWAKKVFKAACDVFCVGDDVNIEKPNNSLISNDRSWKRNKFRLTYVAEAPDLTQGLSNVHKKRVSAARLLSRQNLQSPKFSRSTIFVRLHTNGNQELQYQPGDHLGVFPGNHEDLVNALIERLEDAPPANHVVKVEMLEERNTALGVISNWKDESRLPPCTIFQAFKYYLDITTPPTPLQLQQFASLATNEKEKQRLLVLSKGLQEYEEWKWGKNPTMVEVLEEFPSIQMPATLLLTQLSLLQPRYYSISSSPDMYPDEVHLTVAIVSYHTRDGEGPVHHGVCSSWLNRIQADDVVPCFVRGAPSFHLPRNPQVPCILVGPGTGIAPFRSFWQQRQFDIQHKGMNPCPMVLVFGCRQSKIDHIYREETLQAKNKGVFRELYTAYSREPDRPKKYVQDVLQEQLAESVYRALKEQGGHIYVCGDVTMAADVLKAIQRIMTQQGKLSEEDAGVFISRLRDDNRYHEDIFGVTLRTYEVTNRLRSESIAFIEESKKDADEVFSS

Compound | Activity [1] [µM] | minimal effective concentration [2] [µM] | Activity [3] [%] | Activity [4] [µM] | minimal effective concentration [5] [µM] | Activity [6] [%] | Ratio [7] | inhibition [8] [%] | inhibition [7] | IC50 [9] [µM] | inhibition [10] | inhibition [11] | inhibition [12] | inhibition [13]
CCCNC(=S)Nc1nc2ccc(OC(F)(F)F)cc2s1 | 0.01 | 0.01 | 94.2 | 0.01 | 0.01 | 60.9 | 0.5 | 15 | – | – | – | – | – | –
Nc1nc2ccc(OC(F)(F)F)cc2s1 [RILUZOLE] | 1 | 1 | 100 | 0.1 | 10 | 100 | – | > 50 | inactive | 34.2 | inactive | inactive | Active | –
C/C(=N\c1nc2ccc(OC(F)(F)F)cc2s1)N(C)C | 0.1 | 0.1 | 100 | 0.1 | 0.1 | 56.9 | – | – | – | – | – | – | – | inactive
CCCCNC(=S)Nc1nc2ccc(OC(F)(F)F)cc2s1 | 0.01 | 1 | 100 | 0.01 | 0.01 | 32 | 0.98 | 0 | – | 24.1 | inactive | inactive | Active | –
CC(C)NC(=S)Nc1nc2ccc(OC(F)(F)F)cc2s1 | 0.01 | 0.1 | 80.3 | 0.01 | 0.01 | 50 | 0.64 | – | – | – | – | – | – | –
O=c1c2ccccc2[se]n1-c1ccccc1 | – | – | – | – | – | – | 0.32 | – | – | – | – | – | – | –
CCNC(=S)Nc1nc2ccc(OC(F)(F)F)cc2s1 | 1 | 1 | 80.1 | 0.1 | 0.1 | 73.1 | 0.88 | – | – | – | – | – | – | –
